The source of these data is ChEMBL document CHEMBL4422618, “Translational impact of novel widely pharmacological characterized mofezolac-derived COX-1 inhibitors combined with bortezomib on human multiple myeloma cell lines viability” (Eur J Med Chem, 2019).

The structures appear in SMILES notation. Activity calls are given as the source filed them. The rule behind the calls is not given here. Where only a bound is given, the exact number is not on record here.

Data set [1] deals with T1, Prostaglandin G/H synthase 1 (Ovis aries) (UniProt P05979).
T1 sequence (whole entry): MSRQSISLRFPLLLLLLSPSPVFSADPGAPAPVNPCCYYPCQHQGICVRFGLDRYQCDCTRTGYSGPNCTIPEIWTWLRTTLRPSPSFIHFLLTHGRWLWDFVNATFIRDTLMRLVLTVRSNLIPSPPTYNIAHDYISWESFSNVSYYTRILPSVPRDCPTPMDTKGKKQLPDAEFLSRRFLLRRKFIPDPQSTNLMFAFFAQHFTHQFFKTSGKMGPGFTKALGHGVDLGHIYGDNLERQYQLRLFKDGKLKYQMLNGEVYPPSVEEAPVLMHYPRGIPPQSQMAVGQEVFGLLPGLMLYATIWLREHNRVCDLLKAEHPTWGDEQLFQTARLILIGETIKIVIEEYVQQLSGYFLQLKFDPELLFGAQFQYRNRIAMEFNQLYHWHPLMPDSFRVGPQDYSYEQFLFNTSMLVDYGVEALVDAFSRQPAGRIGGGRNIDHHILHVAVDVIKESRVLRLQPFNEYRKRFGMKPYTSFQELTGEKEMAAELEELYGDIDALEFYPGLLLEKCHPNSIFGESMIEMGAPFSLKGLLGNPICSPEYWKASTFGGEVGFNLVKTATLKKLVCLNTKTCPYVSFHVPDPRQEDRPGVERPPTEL
Nature of the data set: Inhibition of ovine COX1 at 50 uM using arachidonic acid as substrate by colorimetric assay relative to control.

The target in data set [2] is T2, Prostaglandin G/H synthase 1 (Ovis aries, UniProt P05979).
T2 sequence (P05979 whole entry): T1 sequence (whole entry)
Nature of the data set: Inhibition of ovine COX1 using arachidonic acid as substrate by colorimetric assay.

In data set [3] the target is T3, Prostaglandin G/H synthase 2 (Homo sapiens, UniProt P35354).
T3 sequence (P35354 whole entry): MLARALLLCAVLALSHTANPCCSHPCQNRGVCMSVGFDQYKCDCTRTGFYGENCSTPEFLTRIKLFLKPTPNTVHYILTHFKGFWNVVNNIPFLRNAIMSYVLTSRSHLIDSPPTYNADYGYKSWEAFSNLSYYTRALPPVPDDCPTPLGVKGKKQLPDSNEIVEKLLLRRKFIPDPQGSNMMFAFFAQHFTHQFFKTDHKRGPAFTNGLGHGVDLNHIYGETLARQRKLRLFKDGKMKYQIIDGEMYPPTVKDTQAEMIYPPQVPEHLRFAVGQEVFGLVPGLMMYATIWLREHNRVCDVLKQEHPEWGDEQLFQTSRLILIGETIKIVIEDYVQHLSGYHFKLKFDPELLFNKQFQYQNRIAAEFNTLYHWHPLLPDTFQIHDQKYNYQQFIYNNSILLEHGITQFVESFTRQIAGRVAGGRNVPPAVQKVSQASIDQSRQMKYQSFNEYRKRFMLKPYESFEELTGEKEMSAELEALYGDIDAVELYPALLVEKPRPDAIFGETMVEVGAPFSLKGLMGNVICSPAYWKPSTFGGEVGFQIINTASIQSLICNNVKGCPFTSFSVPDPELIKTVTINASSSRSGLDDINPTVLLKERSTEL
Kind of data set: Inhibition of human COX2 using arachidonic acid as substrate by colorimetric assay.

Data set [4] deals with T4, Prostaglandin G/H synthase 2 (Homo sapiens) (UniProt P35354).
T4 sequence (whole entry): T3 sequence (P35354 whole entry)
Nature of the data set: Inhibition of human COX2 at 50 uM using arachidonic acid as substrate by colorimetric assay relative to control.

Data set [5] is described as follows: Selectivity index, ratio of IC50 for human COX2 to IC50 for ovine COX1.
In data set [6] the target is T1, Prostaglandin G/H synthase 1 (Ovis aries). Nature of the data set: Inhibition of ovine COX1 at 10 uM using arachidonic acid as substrate by colorimetric assay relative to control.
Data set [7] can be described thus: Genotoxicity in Escherichia coli PQ35 at 500 uM after overnight incubation by SOS chromotest. Type of data set: toxicity.
A short description of data set [8]: Genotoxicity in Escherichia coli PQ37 at 500 uM after overnight incubation by SOS chromotest. Type of data set: toxicity.
For data set [9], the system named is NCI-H929. Kind of data set: Induction of apoptosis in human NCI-H929 cells assessed as necrotic cells at 2 nM after 48 hrs by Annexin-V/propidium iodide staining based flow cytometric method (reference value: 0.0034%). Type of data set: functional.
Data set [10] deals with RPMI-8226. Kind of data set: Cytotoxicity against human RPMI8226 cells assessed as reduction in cell viability at 2 nM after 48 hrs by CCK8 assay relative to control. Type of data set: functional, cell-based.
Data set [11] concerns NCI-H929. Kind of data set: Cell cycle arrest in human NCI-H929 cells assessed as accumulation at G0/G1 phase at 2 nM after 48 hrs by propidium iodide/RNase staining based flow cytometric method relative to control. Type of data set: functional.
Data set [12] has as its system RPMI-8226. Kind of data set: Induction of apoptosis in human RPMI8226 cells assessed as viable cells at 3 nM after 48 hrs by Annexin-V/propidium iodide staining based flow cytometric method (reference value: 98.7%). Type of data set: functional. The note with it: RPMI-8226, 48 h, read-out: Activity. (Flow cytometry measures light scatter and fluorescence of single cells or particles in a stream.)

Data set [13] has as its system RPMI-8226. Kind of data set: Cytotoxicity against human RPMI8226 cells assessed as reduction in cell viability at 2 nM after 48 hrs by CCK8 assay. The data set is classed as functional, cell-based. For orientation: Tetrazolium dyes change colour on reduction, which living cells bring about.
In data set [14] the test system is NCI-H929. Kind of data set: Induction of apoptosis in human NCI-H929 cells assessed as viable cells at 2 nM after 48 hrs by Annexin-V/propidium iodide staining based flow cytometric method (reference value: 82.6%). Type of data set: functional. Particulars: NCI-H929, 48 h, read-out: Activity.
In data set [15] the test system is NCI-H929. Nature of the data set: Induction of apoptosis in human NCI-H929 cells assessed as late apoptotic cells at 2 nM after 48 hrs by Annexin-V/propidium iodide staining based flow cytometric method (reference value: 0.23%). The data set is classed as functional.
Data set [16] relates to RPMI-8226. Kind of data set: Cell cycle arrest in human RPMI8226 cells assessed as accumulation at G0/G1 phase at 3 nM after 48 hrs by propidium iodide/RNase staining based flow cytometric method. The data set is classed as functional.
The test system of data set [17] is RPMI-8226. Nature of the data set: Induction of apoptosis in human RPMI8226 cells assessed as early apoptotic cells at 3 nM after 48 hrs by Annexin-V/propidium iodide staining based flow cytometric method (reference value: 1.05%). Type of data set: functional.
For data set [18], the system named is NCI-H929. Nature of the data set: Cell cycle arrest in human NCI-H929 cells assessed as accumulation at S phase at 2 nM after 48 hrs by propidium iodide/RNase staining based flow cytometric method relative to control. The data set is classed as functional.
In data set [19] the test system is RPMI-8226. Kind of data set: Cell cycle arrest in human RPMI8226 cells assessed as accumulation at S phase at 3 nM after 48 hrs by propidium iodide/RNase staining based flow cytometric method. The data set is classed as functional.
Data set [20] has as its system NCI-H929. Nature of the data set: Induction of apoptosis in human NCI-H929 cells assessed as early apoptotic cells at 2 nM after 48 hrs by Annexin-V/propidium iodide staining based flow cytometric method (reference value: 17.1%). Type of data set: functional.
The subject of data set [21] is RPMI-8226. Kind of data set: Induction of apoptosis in human RPMI8226 cells assessed as late apoptotic cells at 3 nM after 48 hrs by Annexin-V/propidium iodide staining based flow cytometric method (reference value: 0.21%). The data set is classed as functional.
Data set [22] deals with RPMI-8226. Nature of the data set: Cytotoxicity against human RPMI8226 cells assessed as reduction in cell viability at 3 nM after 48 hrs by CCK8 assay relative to control. The data set is classed as functional.
In data set [23] the test system is RPMI-8226. Nature of the data set: Induction of apoptosis in human RPMI8226 cells assessed as necrotic cells at 3 nM after 48 hrs by Annexin-V/propidium iodide staining based flow cytometric method (reference value: 0.090%). Type of data set: functional.
The subject of data set [24] is Plasma. Nature of the data set: Anticoagulant activity in human platelet poor plasma assessed as prothrombin time at 100 uM incubated for 15 mins at room temperature and subsequent incubation for 2 mins at 37 degreeC followed by PBS addition and measured after 3 mins for every secs in presence of calcium thromboplastin. The data set is classed as functional.
Data set [25] deals with Plasma. Kind of data set: Anticoagulant activity in human platelet poor plasma assessed as activated partial thromboplastin time at 100 uM incubated for 15 mins at room temperature and subsequent incubation for 2 mins at 37 degreeC followed by cephalin addition and measured after 2 mins for every secs in presence of CaCl2. Type of data set: functional.

By inhibition is commonly meant the share of the control response that was lost under treatment. A low value points to a response near the control. Broadly, the IC50 is the concentration needed to halve the response being measured.

Regarding `COc1ccc(-c2noc(N)c2-c2ccc(OC)cc2)cc1`, in [1], the inhibition turned out to be 89%. The results for the IC50 in data set [2] and in data set [3] were 8.3 µM and over 50 µM, respectively.
For `COc1ccc(-c2noc(CF)c2-c2ccc(OC)cc2)cc1`, the inhibition in data set [1] worked out at 100%; in data set [4], 85%. The IC50 was determined as 0.35 µM in data set [2] and 0.3 µM in data set [3].
In turn, `COc1ccc(-c2c(-c3ccc(F)cc3)noc2N)cc1` had an inhibition in data set [1] of 83%. The IC50 was 13 µM in data set [2] and over 50 µM in [3].
In the same order, the values of `Nc1onc(-c2ccc([N+](=O)[O-])cc2)c1-c1ccc(F)cc1` are 71%, 12 µM and over 50 µM.
In data set [3], `COc1ccc(-c2noc(C)c2-c2ccc(OC)cc2)cc1` returned an IC50 of 0.35 µM. Besides, the Ratio IC50 in [5] came out at 4.6.
Turning to `COc1ccc(-c2c(-c3ccc(N)cc3)noc2CC(=O)O)cc1`, the inhibition in data set [1] is 33%; in [4], 42%. Moreover, the IC50 in data set [2] and in data set [3] was over 50 µM throughout.
With `CS(=O)(=O)c1ccc(-c2noc(N)c2-c2ccc(F)cc2)cc1`, the IC50 in [2] and in data set [3] was over 50 µM each time.
`COc1ccc(-c2c(-c3ccc(F)cc3)noc2C)cc1` returned an inhibition in data set [1] of 94%. The IC50 in data set [2] was 3 µM; in data set [3], over 50 µM.
`COc1ccc(-c2noc(CBr)c2-c2ccc(OC)cc2)cc1`: the inhibition in [1] came to 93%; in data set [4], 63%. The concentration for half-maximal inhibition (IC50) in data set [2] came out at 0.1 µM; in data set [3] it was 0.18 µM.
`Cc1onc(-c2ccc([N+](=O)[O-])cc2)c1-c1ccc(F)cc1`: the IC50 in data set [2] and in [3] was over 50 µM in each case.
Consider `Cc1onc(-c2ccc(S(C)(=O)=O)cc2)c1-c1ccc(F)cc1`, for which the results for the inhibition in data set [1] and in data set [4] were 24% and 52%, respectively. Also, the IC50 in data set [2] is over 50 µM; in [3], 0.07 µM.
The compound `COc1ccc(-c2c(-c3ccc(N)cc3)noc2C)cc1` registered an inhibition in data set [1] of 53%. Further, the concentration for half-maximal inhibition (IC50) in data set [2] is 23 µM; in data set [3], over 50 µM.
In the case of `COc1ccc(-c2c(-c3ccc([N+](=O)[O-])cc3)noc2C)cc1`, in [6], the inhibition was 36%. In [3], this compound registered an IC50 of over 50 µM.
In turn, `COc1ccc(-c2c(-c3ccc(NC(C)=O)cc3)noc2CC(=O)O)cc1` yielded an inhibition in data set [1] of 79%. Also, the half-maximal inhibitory concentration (IC50) in [2] is 12 µM; in data set [3], over 50 µM.
Regarding `COc1ccc(-c2c(-c3ccc(F)cc3)noc2CC(=O)O)cc1`, the inhibition in data set [1] was 92%. In addition, the values for the IC50 in data set [2] and in data set [3] were 7.5 µM and over 50 µM, respectively.
Take `COc1ccc(-c2noc(CCO)c2-c2ccc(OC)cc2)cc1`: the results for the inhibition in data set [1] and in data set [4] were 100% and 82%, respectively. For the same compound, the concentration for half-maximal inhibition (IC50) was found to be 0.12 µM in [2] and 0.19 µM in [3]. The Ratio IC50 in [5] came to 1.6.
Take `O=[N+]([O-])c1cc[n+]([O-])c2ccccc12` [4-NITROQUINOLINE-1-OXIDE]: the Activity result in data set [7] and in [8] was “Toxic” in each case.
Turning to `CC(C)C[C@H](NC(=O)[C@H](Cc1ccccc1)NC(=O)c1cnccn1)B(O)O` [BORTEZOMIB], the Activity in data set [9] is 0.033%; in [11] it was 10%; in data set [15] it was 0.14%; in data set [17], 8.81%; in data set [18], 10%; in [20] it was 48.7%. For the same compound, the results for the Activity in [21], in [22] and in data set [23] were 0.11%, 53% and 0.0918%, respectively. Further, the result in [10] and in data set [13] was Active. In data set [12], the viability at 0.003 µM is 91.1%. Moreover, the viability at 0.002 µM in [14] amounted to 51.1%. Also, the result in data set [16] and in data set [19] was inactive.
For the compound `O=C(NC[C@H]1CN(c2ccc(N3CCOCC3=O)cc2)C(=O)O1)c1ccc(Cl)s1` [RIVAROXABAN], the PT in data set [24] is given as 300 s. Further, in [25], the APTT is on record as 300 s.
